# Assays:
# [1] = target: Tyrosine-protein phosphatase non-receptor type 11 (Homo sapiens, UniProt Q06124, Q257L/T253M); test: Inhibition of SHP2 T253M/Q257L mutant (unknown origin)
# [2] = target: Tyrosine-protein phosphatase non-receptor type 11 (Homo sapiens, UniProt Q06124); test: Inhibition of SHP2 1-525 mutant (unknown origin)
# Arginase-1 [3] = target: T1, Arginase-1 (Homo sapiens, UniProt P05089)
# T1 sequence (P05089 whole entry): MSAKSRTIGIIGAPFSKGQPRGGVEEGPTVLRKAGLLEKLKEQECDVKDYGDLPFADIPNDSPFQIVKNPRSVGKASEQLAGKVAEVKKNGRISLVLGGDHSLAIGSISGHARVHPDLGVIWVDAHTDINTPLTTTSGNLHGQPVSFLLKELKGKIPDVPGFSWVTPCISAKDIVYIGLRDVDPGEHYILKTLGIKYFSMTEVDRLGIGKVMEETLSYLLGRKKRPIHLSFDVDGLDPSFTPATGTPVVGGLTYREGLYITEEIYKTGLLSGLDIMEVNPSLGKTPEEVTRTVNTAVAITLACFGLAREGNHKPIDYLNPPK
# [4] = target: T2, Arginase-2, mitochondrial (Homo sapiens, UniProt P78540)
# T2 sequence (P78540 whole entry): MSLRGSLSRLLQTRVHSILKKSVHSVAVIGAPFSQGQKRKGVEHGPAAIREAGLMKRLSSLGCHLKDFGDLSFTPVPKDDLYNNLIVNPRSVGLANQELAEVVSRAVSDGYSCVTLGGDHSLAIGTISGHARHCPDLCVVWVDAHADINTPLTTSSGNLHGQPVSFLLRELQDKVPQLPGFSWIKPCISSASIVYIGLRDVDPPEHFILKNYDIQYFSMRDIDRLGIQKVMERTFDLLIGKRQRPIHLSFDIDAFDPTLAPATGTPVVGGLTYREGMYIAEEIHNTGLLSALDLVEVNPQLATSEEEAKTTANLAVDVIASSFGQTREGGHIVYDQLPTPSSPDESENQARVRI
# Arginase-1 [5] = target: T1, Arginase-1; test: Inhibition of recombinant human ARG1 expressed in Escherichia coli using L-arginine hydrochloride as substrate incubated for 1 hr by colorimetric assay
# [6] = target: Tyrosine-protein phosphatase non-receptor type 6 (Homo sapiens, UniProt P29350)
# [7] = target: T3, Tyrosine-protein phosphatase non-receptor type 1 (Homo sapiens, UniProt P18031)
# T3 sequence (P18031 whole entry): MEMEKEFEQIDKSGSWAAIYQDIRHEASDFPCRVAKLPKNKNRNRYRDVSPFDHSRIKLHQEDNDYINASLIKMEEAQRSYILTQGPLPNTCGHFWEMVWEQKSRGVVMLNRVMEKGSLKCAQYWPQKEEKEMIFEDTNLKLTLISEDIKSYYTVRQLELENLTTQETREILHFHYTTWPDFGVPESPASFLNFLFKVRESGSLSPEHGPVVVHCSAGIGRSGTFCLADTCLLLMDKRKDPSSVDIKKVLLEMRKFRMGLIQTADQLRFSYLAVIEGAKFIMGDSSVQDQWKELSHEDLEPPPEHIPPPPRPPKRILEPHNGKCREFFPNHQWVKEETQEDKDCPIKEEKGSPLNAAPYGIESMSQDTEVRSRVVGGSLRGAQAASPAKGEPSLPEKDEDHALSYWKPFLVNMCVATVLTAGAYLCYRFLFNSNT
# [8] = target: Programmed cell death 1 ligand 1 (Homo sapiens, UniProt Q9NZQ7)
# [9] = target: Tyrosine-protein phosphatase non-receptor type 11 (Homo sapiens, UniProt Q06124, E76K); test: Inhibition of SHP2 (unknown origin) E76K mutant
# [10] = target: T4, Tyrosine-protein phosphatase non-receptor type 11 (Homo sapiens, UniProt Q06124)
# T4 sequence (Q06124 whole entry): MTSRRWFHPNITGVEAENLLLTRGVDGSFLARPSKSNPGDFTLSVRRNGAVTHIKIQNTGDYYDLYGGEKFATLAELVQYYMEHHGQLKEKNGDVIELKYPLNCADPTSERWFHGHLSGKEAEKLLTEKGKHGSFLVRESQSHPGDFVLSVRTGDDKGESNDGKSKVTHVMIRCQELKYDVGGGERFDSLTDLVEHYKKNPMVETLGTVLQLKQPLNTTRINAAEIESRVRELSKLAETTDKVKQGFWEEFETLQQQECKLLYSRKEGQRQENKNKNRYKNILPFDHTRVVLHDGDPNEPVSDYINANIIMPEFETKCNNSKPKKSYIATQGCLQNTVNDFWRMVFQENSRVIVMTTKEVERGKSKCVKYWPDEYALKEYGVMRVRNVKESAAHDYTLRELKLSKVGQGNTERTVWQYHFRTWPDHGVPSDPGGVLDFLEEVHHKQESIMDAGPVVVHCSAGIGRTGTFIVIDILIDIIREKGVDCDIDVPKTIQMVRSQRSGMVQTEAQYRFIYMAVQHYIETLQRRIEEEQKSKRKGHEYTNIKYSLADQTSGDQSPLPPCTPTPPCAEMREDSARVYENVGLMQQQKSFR
# [11] = target: T4, Tyrosine-protein phosphatase non-receptor type 11; test: Inhibition of SHP (unknown origin)
# [12] = target: T4, Tyrosine-protein phosphatase non-receptor type 11; test: Inhibition of SHP2 (unknown origin) at […]
# [13] = target: T4, Tyrosine-protein phosphatase non-receptor type 11; remark: listed apart in the source
# [14] = target: T5, Phosphatidylinositol 3,4,5-trisphosphate 5-phosphatase 1 (Homo sapiens, UniProt Q92835); test: Inhibition of SHIP1 (unknown origin)
# T5 sequence (Q92835 whole entry): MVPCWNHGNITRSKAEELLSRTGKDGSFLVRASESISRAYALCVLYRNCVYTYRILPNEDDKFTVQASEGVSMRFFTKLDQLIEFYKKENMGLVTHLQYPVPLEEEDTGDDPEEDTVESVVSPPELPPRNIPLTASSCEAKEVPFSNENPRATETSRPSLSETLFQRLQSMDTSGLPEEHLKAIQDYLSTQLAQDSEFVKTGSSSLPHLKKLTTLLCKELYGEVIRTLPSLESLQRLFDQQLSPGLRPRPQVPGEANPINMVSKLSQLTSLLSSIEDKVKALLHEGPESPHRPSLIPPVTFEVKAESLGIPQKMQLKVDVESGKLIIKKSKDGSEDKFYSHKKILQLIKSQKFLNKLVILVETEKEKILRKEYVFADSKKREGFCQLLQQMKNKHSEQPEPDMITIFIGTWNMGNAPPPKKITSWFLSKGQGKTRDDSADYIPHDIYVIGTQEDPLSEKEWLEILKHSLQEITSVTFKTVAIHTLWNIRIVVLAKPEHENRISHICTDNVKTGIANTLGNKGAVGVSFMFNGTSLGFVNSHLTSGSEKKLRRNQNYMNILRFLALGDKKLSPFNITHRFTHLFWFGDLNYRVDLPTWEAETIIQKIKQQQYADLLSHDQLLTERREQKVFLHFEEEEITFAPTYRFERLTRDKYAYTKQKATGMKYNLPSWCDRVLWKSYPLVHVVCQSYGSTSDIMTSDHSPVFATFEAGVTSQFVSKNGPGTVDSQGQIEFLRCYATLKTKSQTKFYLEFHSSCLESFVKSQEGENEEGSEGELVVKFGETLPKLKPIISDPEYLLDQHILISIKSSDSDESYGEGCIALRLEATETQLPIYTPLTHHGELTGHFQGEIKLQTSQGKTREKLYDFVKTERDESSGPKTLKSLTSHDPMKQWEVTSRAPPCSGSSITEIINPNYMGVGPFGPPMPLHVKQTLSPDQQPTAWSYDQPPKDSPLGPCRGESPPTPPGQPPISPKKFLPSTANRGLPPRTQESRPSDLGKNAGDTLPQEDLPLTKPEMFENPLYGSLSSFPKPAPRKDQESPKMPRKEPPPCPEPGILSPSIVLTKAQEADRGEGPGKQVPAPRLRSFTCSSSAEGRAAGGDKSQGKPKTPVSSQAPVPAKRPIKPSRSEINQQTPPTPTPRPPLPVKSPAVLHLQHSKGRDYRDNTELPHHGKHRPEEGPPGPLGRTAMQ
# [15] = target: T4, Tyrosine-protein phosphatase non-receptor type 11; remark: listed apart in the source
# Arginase-1 [16] = target: T6, Arginase-1 (Mus musculus, UniProt Q61176); test: Inhibition of mouse ARG1
# T6 sequence (Q61176 whole entry): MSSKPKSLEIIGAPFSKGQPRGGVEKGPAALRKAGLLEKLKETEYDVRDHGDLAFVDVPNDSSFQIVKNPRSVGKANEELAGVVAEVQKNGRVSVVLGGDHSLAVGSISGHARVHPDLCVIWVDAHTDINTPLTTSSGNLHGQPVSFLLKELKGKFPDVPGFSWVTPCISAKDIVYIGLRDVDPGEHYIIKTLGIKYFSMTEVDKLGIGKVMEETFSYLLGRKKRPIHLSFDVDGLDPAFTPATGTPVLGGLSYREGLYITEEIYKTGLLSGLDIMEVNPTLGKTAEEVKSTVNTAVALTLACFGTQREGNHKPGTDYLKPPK
# [17] = target: T2, Arginase-2, mitochondrial; test: Inhibition of recombinant human ARG2 expressed in Escherichia coli using L-arginine hydrochloride as substrate incubated for 1 hr by colorimetric assay
# L929 = test: cells; settings: Mus musculus
# [18] = target: T7, Stimulator of interferon genes protein (Homo sapiens, UniProt Q86WV6); test: Agonist activity at STING in human THP1-Dual cells assessed as increase in IFN-beta secretion incubated for 24 hrs; format: cell-based, THP-1
# [19] = target: Tyrosine-protein kinase BTK (Homo sapiens, UniProt Q06187)
# [20] = Agonist activity at IFNalpha (unknown origin); parameters: species or system Homo sapiens
# [21] = Agonist activity at TNFalpha (unknown origin); parameters: species or system Homo sapiens
# [22] = target: T7, Stimulator of interferon genes protein; test: Binding affinity to human STING assessed as dissociation constant by surface plasmon resonance
# [23] = Binding affinity to A2aR (unknown origin); parameters: species or system Homo sapiens
# Tyrosine-protein phosphatase non-receptor type 6, sequence (P29350 whole entry): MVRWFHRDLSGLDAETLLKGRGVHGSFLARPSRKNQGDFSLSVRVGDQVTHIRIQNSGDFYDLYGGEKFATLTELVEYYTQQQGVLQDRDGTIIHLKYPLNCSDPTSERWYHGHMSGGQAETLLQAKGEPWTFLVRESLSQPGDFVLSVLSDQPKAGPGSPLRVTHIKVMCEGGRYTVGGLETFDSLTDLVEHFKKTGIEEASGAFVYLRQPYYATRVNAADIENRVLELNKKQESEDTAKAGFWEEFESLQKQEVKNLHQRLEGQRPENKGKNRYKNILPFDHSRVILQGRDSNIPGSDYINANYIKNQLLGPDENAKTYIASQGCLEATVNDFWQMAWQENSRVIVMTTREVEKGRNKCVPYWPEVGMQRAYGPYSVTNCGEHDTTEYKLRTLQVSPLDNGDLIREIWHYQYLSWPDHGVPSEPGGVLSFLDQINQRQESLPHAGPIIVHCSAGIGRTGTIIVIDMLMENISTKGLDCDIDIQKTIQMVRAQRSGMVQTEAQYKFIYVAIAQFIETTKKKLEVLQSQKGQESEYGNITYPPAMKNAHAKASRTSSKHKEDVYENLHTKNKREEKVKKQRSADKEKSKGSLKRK
# T7 sequence (Q86WV6 whole entry): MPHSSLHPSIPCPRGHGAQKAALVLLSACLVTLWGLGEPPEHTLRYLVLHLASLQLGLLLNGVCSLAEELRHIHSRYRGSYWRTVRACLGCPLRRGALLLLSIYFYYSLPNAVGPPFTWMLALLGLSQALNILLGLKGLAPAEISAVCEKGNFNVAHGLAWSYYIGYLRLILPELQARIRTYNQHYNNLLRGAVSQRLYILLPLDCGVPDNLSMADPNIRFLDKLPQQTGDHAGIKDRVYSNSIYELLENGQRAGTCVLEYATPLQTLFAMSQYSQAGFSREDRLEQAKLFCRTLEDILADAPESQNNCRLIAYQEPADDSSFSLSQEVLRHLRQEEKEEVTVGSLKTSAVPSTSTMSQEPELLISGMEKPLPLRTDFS
# Programmed cell death 1 ligand 1, sequence (Q9NZQ7 whole entry): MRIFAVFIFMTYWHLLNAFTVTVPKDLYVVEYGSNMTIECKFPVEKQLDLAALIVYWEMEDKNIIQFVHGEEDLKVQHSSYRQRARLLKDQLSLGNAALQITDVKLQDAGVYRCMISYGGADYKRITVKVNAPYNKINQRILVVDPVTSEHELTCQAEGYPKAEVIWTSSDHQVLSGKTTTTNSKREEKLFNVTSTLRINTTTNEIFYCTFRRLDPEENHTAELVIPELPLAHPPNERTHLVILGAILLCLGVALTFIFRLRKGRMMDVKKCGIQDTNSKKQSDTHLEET
# Tyrosine-protein phosphatase non-receptor type 11 (Homo sapiens, UniProt Q06124, E76K), sequence (Q06124 2-593 E76K limits assumed): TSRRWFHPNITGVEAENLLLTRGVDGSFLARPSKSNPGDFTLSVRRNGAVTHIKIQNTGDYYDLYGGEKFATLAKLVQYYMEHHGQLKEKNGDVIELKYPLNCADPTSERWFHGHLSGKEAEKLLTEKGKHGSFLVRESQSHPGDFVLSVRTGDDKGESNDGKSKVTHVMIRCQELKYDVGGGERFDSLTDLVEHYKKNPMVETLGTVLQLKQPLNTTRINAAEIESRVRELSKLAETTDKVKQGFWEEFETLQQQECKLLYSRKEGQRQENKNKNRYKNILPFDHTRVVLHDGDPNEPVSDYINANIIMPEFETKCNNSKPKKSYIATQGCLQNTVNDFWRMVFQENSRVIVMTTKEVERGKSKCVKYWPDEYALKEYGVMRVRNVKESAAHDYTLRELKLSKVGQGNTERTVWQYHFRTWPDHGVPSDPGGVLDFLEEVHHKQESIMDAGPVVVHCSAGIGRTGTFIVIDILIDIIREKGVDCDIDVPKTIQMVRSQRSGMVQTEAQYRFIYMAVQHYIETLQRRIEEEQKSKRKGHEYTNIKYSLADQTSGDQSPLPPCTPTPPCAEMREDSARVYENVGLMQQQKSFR
# Tyrosine-protein phosphatase non-receptor type 11 (Homo sapiens, UniProt Q06124, Q257L/T253M), sequence (Q06124 2-593 T253M/Q257L limits assumed): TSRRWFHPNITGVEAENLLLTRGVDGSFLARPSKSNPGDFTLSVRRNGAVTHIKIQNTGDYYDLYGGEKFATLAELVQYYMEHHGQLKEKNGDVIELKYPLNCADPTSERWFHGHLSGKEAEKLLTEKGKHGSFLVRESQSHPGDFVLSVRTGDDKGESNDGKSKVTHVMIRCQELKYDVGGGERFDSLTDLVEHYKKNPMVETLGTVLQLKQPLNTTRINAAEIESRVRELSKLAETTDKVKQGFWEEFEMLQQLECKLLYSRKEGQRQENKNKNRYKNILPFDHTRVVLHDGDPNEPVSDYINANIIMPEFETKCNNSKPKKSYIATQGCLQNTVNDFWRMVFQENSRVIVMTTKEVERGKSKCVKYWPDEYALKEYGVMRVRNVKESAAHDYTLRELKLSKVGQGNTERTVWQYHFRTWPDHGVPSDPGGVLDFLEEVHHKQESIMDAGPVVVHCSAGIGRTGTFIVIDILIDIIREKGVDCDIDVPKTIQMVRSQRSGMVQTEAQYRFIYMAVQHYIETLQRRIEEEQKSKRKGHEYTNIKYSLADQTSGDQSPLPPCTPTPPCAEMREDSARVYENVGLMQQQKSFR
# Tyrosine-protein kinase BTK, sequence (Q06187 whole entry): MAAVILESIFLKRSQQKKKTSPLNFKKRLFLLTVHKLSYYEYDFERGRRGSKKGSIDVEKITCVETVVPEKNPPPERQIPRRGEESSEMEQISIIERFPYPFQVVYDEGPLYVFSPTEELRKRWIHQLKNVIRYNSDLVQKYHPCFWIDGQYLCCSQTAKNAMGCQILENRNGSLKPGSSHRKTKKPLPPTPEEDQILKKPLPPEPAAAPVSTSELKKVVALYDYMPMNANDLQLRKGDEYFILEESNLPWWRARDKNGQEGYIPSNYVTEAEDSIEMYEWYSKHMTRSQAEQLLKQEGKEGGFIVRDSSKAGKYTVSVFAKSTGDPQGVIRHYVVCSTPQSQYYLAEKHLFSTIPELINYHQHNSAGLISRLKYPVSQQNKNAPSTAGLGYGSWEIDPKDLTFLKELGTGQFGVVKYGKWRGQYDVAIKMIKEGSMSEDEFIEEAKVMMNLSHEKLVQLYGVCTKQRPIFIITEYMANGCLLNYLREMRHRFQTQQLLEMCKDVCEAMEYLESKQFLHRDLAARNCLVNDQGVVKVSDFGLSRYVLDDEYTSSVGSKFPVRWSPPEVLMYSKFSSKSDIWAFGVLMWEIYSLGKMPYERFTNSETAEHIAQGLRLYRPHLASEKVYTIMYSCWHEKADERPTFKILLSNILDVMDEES
compound,measurement,setting,value
COc1cccc(-c2nnc3n(Cc4ccccc4Cl)c(=O)c4ccccc4n23)c1O,IC50,[1],60000 nM
same,IC50,[2],60000 nM
N[C@@H](CCCCB(O)O)C(=O)O,IC50,Arginase-1 [3],5 nM
same,IC50,[4],8.5 nM
N[C@](CCCCB(O)O)(CCN1CCCCC1)C(=O)O,IC50,Arginase-1 [5],509 nM
N=C(NO)NCCC[C@H](N)C(=O)O,IC50,Arginase-1 [5],150 nM
same,IC50,Arginase-1 [3],3600 nM
same,IC50,[4],1600 nM
N[C@@H](CSCCB(O)O)C(=O)O,IC50,Arginase-1 [3],270 nM
same,IC50,[4],30 nM
O=S(=O)(O)c1ccc2cc(/N=N/c3cc(S(=O)(=O)O)c4cccnc4c3O)ccc2c1,IC50,[6],335 nM
same,IC50,[7],14300 nM
N#Cc1cncc(COc2cc(OC3CCc4c(-c5ccccc5)cccc43)c(Cl)cc2CN[C@@H](CO)C(=O)O)c1 (stereo not given in full),IC50,[8],< 100 nM
O=C1Nc2ccc(S(=O)(=O)NCc3ccc(F)cc3)cc2/C1=N/Nc1cccc(C(=O)O)c1,IC50,[7],1690 nM
CCOc1cc(O)c(C(=O)/C=C/c2ccc(Cl)cc2Cl)cc1CN1CCC=C(C2C(=O)Nc3ccccc32)C1 (stereo not given),IC50,[9],7670 nM
same,IC50,[10],9.8 nM
C[C@@H]1OCC2(CCN(c3nc(N)c(Sc4cccnc4C(F)(F)F)c(=O)n3O)CC2)[C@@H]1N,IC50,[11],23 nM
same,IC50,[10],23 nM
COC(=O)c1cccc(N/N=C2\C(=O)Nc3ccc(S(=O)(=O)NCc4ccc(F)cc4)cc32)c1,IC50,[12],> 100000 nM
CCOC(=O)c1ccc(N2NC(c3ccc([N+](=O)[O-])cc3)/C(=N/Nc3ccc(S(=O)(=O)O)cc3)C2=O)cc1 (stereo not given),IC50,[13],630 nM
same,IC50,[6],1800 nM
same,IC50,[7],19000 nM
CC(C)CCC[C@@H](C)[C@H]1CC[C@H]2[C@]3(C)CC[C@H]4C[C@H](N)CC[C@]4(C)[C@H]3CC[C@@]21C,IC50,[14],2500 nM
O=C1Nc2cc(S(=O)(=O)O)ccc2C1/N=N/c1ccccc1[N+](=O)[O-] (stereo not given),IC50,[13],47000 nM
same,IC50,[15],47000 nM
OC[C@H]1O[C@H](Oc2cc(/C=C/c3cc(O)cc(O)c3)ccc2O)[C@H](O)[C@@H](O)[C@@H]1O,IC50,Arginase-1 [16],11200 nM
N[C@@](CCCCB(O)O)(C(=O)O)C1CCN(Cc2ccc(Cl)c(Cl)c2)CC1,IC50,Arginase-1 [5],200 nM
same,IC50,[17],290 nM
NC(CCCCB(O)O)(C(=O)O)C1CCN(Cc2ccc(Cl)cc2Cl)CC1 (stereo not given),IC50,Arginase-1 [5],86 nM
same,IC50,[17],296 nM
O=C1/C(=N\Nc2ccc(S(=O)(=O)O)cc2)C(c2ccc([N+](=O)[O-])cc2)NN1c1ccccc1 (stereo not given),IC50,[13],30000 nM
same,IC50,[6],30000 nM
same,IC50,[7],14500 nM
Cc1nc(N2CCC(C)(N)CC2)c(CO)nc1-c1cccc(Cl)c1Cl,IC50,[11],71 nM
NC1=NC2C(N=CN2[C@@H]2O[C@@H]3COP(=O)(O)O[C@H]4[C@@H](O)[C@H](N5C=NC6C(=O)NC(N)=NC65)O[C@@H]4COP(=O)(O)O[C@H]3[C@H]2O)C(=O)N1 (stereo not given in full),EC50,L929,> 500 nM
Cn1cc(-c2cn(CC(=O)Nc3nc4ccccc4s3)nn2)c2cc(C(=O)O)c(O)cc21,IC50,[13],5500 nM
same,IC50,[6],15700 nM
same,IC50,[7],2100 nM
CCn1nc(C)cc1C(=O)/C=C1\Nc2cc(C(N)=O)cc(CCCN3CCOCC3)c2N1C/C=C/CN1/C(=C/C(=O)c2cc(C)nn2CC)Nc2cc(C(N)=O)cc(OC)c21,EC50,[18],130 nM
Cc1c(-c2c(F)cc(C(N)=O)c3[nH]c4c(c23)CC[C@H](C(C)(C)O)C4)cccc1N1C(=O)c2cccc(F)c2C(C)C1=O (stereo not given in full),IC50,[19],0.5 nM
CCC[C@H](C)Oc1nc(N)c2[nH]c(=O)n(CCCCCN3CCCCC3)c2n1 [GSK-2245035],pEC50,[20],9.3
same,pEC50,[21],6.5
COc1c(O)cc2oc3cc(O)c(CC=C(C)C)c(O)c3c(=O)c2c1CC=C(C)C [MANGOSTIN],Kd,[22],137000 nM
N=C(NO)NCC[C@H](N)C(=O)O [NOR-NOHA],IC50,[4],51 nM
Nc1nc(-n2cccn2)nc(-n2cccn2)c1Br [PBF-509],Ki,[23],8.2 nM

# Source: ChEMBL document CHEMBL5241065, “If small molecules immunotherapy comes, can the prime be far behind?” (Eur J Med Chem, 2021)
